Among the test systems are HCT-15 colon; HS 578T breast; IGROV1 ovarian; KM12 colon; OVCAR-5 ovarian; PC-3 prostate; RPMI-8226 leukemia; SF-295 CNS; SR leukemia; T-47D breast.
Experiment in all cases: NCI tumour cell line growth inhibition, 48 h

“And” between values parts separate entries of the source, which are not always exact repeats. Equal entries are not always repeated.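 Cells were grown in 96-well plates and exposed to each compound for 48 hours at five concentrations; endpoints were interpolated linearly between bracketing concentrations, or set to the highest concentration if not reached. The concentration for 50% growth inhibition is given as GI50. Definition used: TGI = concentration required for complete inhibition of growth.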 Where only a bound is given, the exact number is not on record here.

In the case of `Cc1cc(Cl)nc2ccc(Cc3ccc4nc(Cl)cc(C)c4c3)cc12`, the TGI in the test with HCT-15 colon, in the test with HS 578T breast, in the test with IGROV1 ovarian, with KM12 colon, in the test with OVCAR-5 ovarian and with PC-3 prostate was > 100 µM in each case. Also, the TGI with RPMI-8226 leukemia was > 100 µM; in the test with SF-295 CNS, > 100 µM; in the test on SR leukemia it was > 100 µM; with T-47D breast it was 54.8 µM.
For `Cc1ccc(-c2nc3nc(-c4ccc(F)cc4)nc(N4CCNCC4)c3o2)cc1`, the GI50 in the test with HCT-15 colon is 1.67 µM; in the test on HS 578T breast it was 2.06 µM; in the test on IGROV1 ovarian it was 1.68 µM; with KM12 colon, 1.88 µM; in the test on OVCAR-5 ovarian it was 1.97 µM; with PC-3 prostate it was 1.91 µM. Besides, the GI50 with RPMI-8226 leukemia is 2.36 µM; in the test on SF-295 CNS, 18.3 µM; in the test with SR leukemia, 0.323 µM; with T-47D breast, 2.3 µM. Besides, the TGI in the test on HCT-15 colon amounted to 3.38 µM; in the test on HS 578T breast, 5.12 µM; in the test on IGROV1 ovarian it was 3.16 µM; with KM12 colon, 3.61 µM; in the test on OVCAR-5 ovarian, 4.54 µM; in the test on PC-3 prostate it was 4.69 µM. Besides, the TGI in the test on RPMI-8226 leukemia was found to be 5.49 µM; with SF-295 CNS, 33.9 µM; in the test on SR leukemia, 1.13 µM; in the test on T-47D breast, 6.92 µM.
With `Oc1c(C(Nc2ccccn2)c2cccc(Oc3ccccc3)c2)ccc2cccnc12` (stereo not drawn), the GI50 in the test on HCT-15 colon is 0.331 µM; in the test on HS 578T breast, 0.74 µM; in the test with IGROV1 ovarian it was 0.538 µM; with KM12 colon it was 0.45 µM; with OVCAR-5 ovarian it was 0.515 µM; in the test with PC-3 prostate, 0.483 µM. In addition, the GI50 with RPMI-8226 leukemia is 0.6 µM; in the test on SF-295 CNS it was 0.392 µM; in the test with SR leukemia it was 0.508 µM; with T-47D breast, 0.785 µM. Also, the TGI was > 100 µM with HCT-15 colon; > 100 µM in the test with HS 578T breast; 21.5 µM in the test on IGROV1 ovarian; 23.4 µM in the test on KM12 colon; 12.6 µM in the test on OVCAR-5 ovarian; 20.1 µM with PC-3 prostate. In addition, the TGI in the test with RPMI-8226 leukemia was 84 µM; in the test on SF-295 CNS it was 13.3 µM; with SR leukemia, > 100 µM; with T-47D breast, 33.2 µM.
Regarding `CC1CCCC(C(=O)CC2CC(=O)NC(=O)C2)C1=O` (stereo not drawn), the TGI in the test with HCT-15 colon, in the test on HS 578T breast, in the test with IGROV1 ovarian, in the test on KM12 colon, in the test with OVCAR-5 ovarian and in the test on PC-3 prostate was > 100 µM throughout. In addition, the TGI in the test on RPMI-8226 leukemia, with SF-295 CNS, in the test with SR leukemia and in the test on T-47D breast was > 100 µM each time.
For `N#CC1C[C@@H]2CC3(CCC2CN1C(=O)c1ccccc1)OCCO3` (stereo partly drawn), the TGI with HCT-15 colon, in the test with HS 578T breast, in the test with IGROV1 ovarian, in the test on KM12 colon, in the test on OVCAR-5 ovarian and with PC-3 prostate was > 100 µM each time. Moreover, the TGI in the test with RPMI-8226 leukemia, with SF-295 CNS, in the test with SR leukemia and with T-47D breast was > 100 µM throughout. Besides, the GI50 in the test with HS 578T breast, with PC-3 prostate and in the test with T-47D breast was > 100 µM throughout.
Consider `Cc1ccc(F)c(NC(=O)Nc2ccc(-c3cccc4[nH]nc(N)c34)cc2)c1`, for which the GI50 with HCT-15 colon is 3.21 µM and 3.11 µM; in the test on HS 578T breast, 2.5 µM and 2.91 µM; in the test on IGROV1 ovarian, 4 µM and 3.13 µM; in the test with KM12 colon it was 1.64 µM and 1.55 µM; in the test on OVCAR-5 ovarian, 2.74 µM and 3.42 µM; in the test with PC-3 prostate it was 4.18 µM and 4.54 µM. Also, the GI50 in the test on RPMI-8226 leukemia is 2.27 µM and 2.39 µM; in the test on SF-295 CNS, 2.55 µM and 3.48 µM; in the test on SR leukemia, 2.62 µM and 1.87 µM; in the test with T-47D breast, 3.62 µM and 2.89 µM. The TGI in the test on HCT-15 colon is 11.2 µM and > 10 µM; in the test on HS 578T breast, 12.6 µM and > 10 µM; in the test with IGROV1 ovarian it was 15.8 µM and > 10 µM; in the test with KM12 colon, 4.94 µM and 5.79 µM; with OVCAR-5 ovarian, 9.11 µM and > 10 µM; in the test on PC-3 prostate, 17.7 µM and > 10 µM. The TGI in the test with RPMI-8226 leukemia is 6.11 µM and 6.27 µM; with SF-295 CNS it was 12.3 µM and > 10 µM; with SR leukemia, 8.37 µM and 5.45 µM; in the test with T-47D breast, 17.3 µM and > 10 µM.
For `Cc1ccc([Se](=C(C(=O)c2ccccc2)C(=O)c2ccccc2)c2ccc(C)cc2)cc1`, the TGI in the test on HCT-15 colon is 44.7 µM; in the test on HS 578T breast, 72.9 µM; with IGROV1 ovarian, 78.5 µM; with KM12 colon, 44.1 µM; in the test with OVCAR-5 ovarian, > 100 µM; in the test with PC-3 prostate it was 82.5 µM. The TGI in the test on RPMI-8226 leukemia was 22.4 µM; in the test with SF-295 CNS, 66.5 µM; in the test with SR leukemia it was 33.2 µM; with T-47D breast, > 100 µM.
For `O=C(Cn1c(C(=O)c2ccc(Cl)cc2)nc(-c2ccc(Cl)cc2)c1-c1ccc(Cl)cc1)c1ccccc1`, the GI50 in the test with HCT-15 colon, in the test with HS 578T breast, in the test with IGROV1 ovarian, in the test on KM12 colon, in the test with OVCAR-5 ovarian and in the test with PC-3 prostate was > 100 µM in each case. The GI50 with RPMI-8226 leukemia, with SF-295 CNS, in the test with SR leukemia and with T-47D breast was > 100 µM each time. Besides, the TGI in the test with HCT-15 colon, with HS 578T breast, with IGROV1 ovarian, in the test on KM12 colon, with OVCAR-5 ovarian and in the test on PC-3 prostate was > 100 µM each time. Moreover, the TGI in the test with RPMI-8226 leukemia, with SF-295 CNS, with SR leukemia and in the test on T-47D breast was > 100 µM in each case.
Consider `CC1=C/C=C/C(=O)O[C@@H]([C@H](C)[C@H](O)[C@@H](C)NC(=O)C(C)C)[C@H](C)/C=C/C(C)=C/[C@H]2C=CCC[C@@]2(C)\C=C\1`, for which the GI50 in the test with HCT-15 colon was 0.231 µM and 0.275 µM; with HS 578T breast, 6.73 µM and 1.9 µM; with IGROV1 ovarian, 0.603 µM and 0.189 µM; in the test with KM12 colon, 0.518 µM and 0.343 µM; with OVCAR-5 ovarian, 8.43 µM and 5.43 µM; in the test with PC-3 prostate, 0.654 µM and 0.223 µM. Further, the GI50 with RPMI-8226 leukemia is 0.705 µM and 0.703 µM; with SF-295 CNS it was 0.0264 µM; in the test with SR leukemia it was 0.41 µM and 0.191 µM; with T-47D breast, 0.112 µM and 0.132 µM. The TGI with HCT-15 colon is 9.15 µM; in the test with HS 578T breast, > 42.3 µM; with IGROV1 ovarian, 10.7 µM; in the test on KM12 colon, > 42.3 µM; in the test on OVCAR-5 ovarian, 14.3 µM; in the test with PC-3 prostate, 13.2 µM. The TGI worked out at 12.3 µM with RPMI-8226 leukemia, 7.5 µM in the test with SF-295 CNS, 5.58 µM in the test on SR leukemia and 36.6 µM in the test with T-47D breast.

For the origin of these results see PubChem BioAssay (NCI).
